Results published in PubChem BioAssay (NCI).
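Following 48 hours of exposure in 96-well plates, responses at five concentrations were used to interpolate endpoints linearly. The concentration for full growth arrest is given as TGI.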

What was measured:
Test in all cases: NCI anticancer screen, dose series, 48 h
OVCAR-4 ovarian = test system: OVCAR-4 ovarian
SW-620 colon = test system: SW-620 colon
NCI/ADR-RES ovarian = test system: NCI/ADR-RES ovarian
A549 NSCLC = test system: A549 NSCLC
MOLT-4 leukemia = test system: MOLT-4 leukemia
SK-MEL-5 melanoma = test system: SK-MEL-5 melanoma
T-47D breast = test system: T-47D breast
SNB-19 CNS = test system: SNB-19 CNS
U251 CNS = test system: U251 CNS
HL-60(TB) leukemia = test system: HL-60(TB) leukemia
HCT-116 colon = test system: HCT-116 colon
HOP-92 NSCLC = test system: HOP-92 NSCLC
RXF 393 renal = test system: RXF 393 renal
A498 renal = test system: A498 renal
RPMI-8226 leukemia = test system: RPMI-8226 leukemia
BT-549 breast = test system: BT-549 breast
NCI-H460 lung = test system: NCI-H460 lung
IGROV1 ovarian = test system: IGROV1 ovarian
OVCAR-5 ovarian = test system: OVCAR-5 ovarian
SF-295 CNS = test system: SF-295 CNS
SK-OV-3 ovarian = test system: SK-OV-3 ovarian
UACC-257 melanoma = test system: UACC-257 melanoma
HCC-2998 colon = test system: HCC-2998 colon
SNB-75 CNS = test system: SNB-75 CNS
OVCAR-8 ovarian = test system: OVCAR-8 ovarian
HS 578T breast = test system: HS 578T breast
SK-MEL-28 melanoma = test system: SK-MEL-28 melanoma
SF-539 CNS = test system: SF-539 CNS
MDA-N = test system: MDA-N
SN12C renal = test system: SN12C renal
NCI-H23 lung = test system: NCI-H23 lung
SK-MEL-2 melanoma = test system: SK-MEL-2 melanoma
K-562 leukemia = test system: K-562 leukemia
HCT-15 colon = test system: HCT-15 colon
786-0 renal = test system: 786-0 renal
UACC-62 melanoma = test system: UACC-62 melanoma
CAKI-1 renal = test system: CAKI-1 renal
EKVX NSCLC = test system: EKVX NSCLC
TK-10 renal = test system: TK-10 renal
HT29 colon = test system: HT29 colon
M14 melanoma = test system: M14 melanoma
NCI-H226 lung = test system: NCI-H226 lung
MCF7 breast = test system: MCF7 breast
UO-31 renal = test system: UO-31 renal
HOP-62 NSCLC = test system: HOP-62 NSCLC
MDA-MB-231 breast = test system: MDA-MB-231 breast
LOX IMVI melanoma = test system: LOX IMVI melanoma
SF-268 CNS = test system: SF-268 CNS
PC-3 prostate = test system: PC-3 prostate
MDA-MB-435 = test system: MDA-MB-435
NCI-H522 lung = test system: NCI-H522 lung
COLO 205 colon = test system: COLO 205 colon
DU-145 prostate = test system: DU-145 prostate
CCRF-CEM leukemia = test system: CCRF-CEM leukemia
ACHN renal = test system: ACHN renal
MALME-3M melanoma = test system: MALME-3M melanoma
KM12 colon = test system: KM12 colon
OVCAR-3 ovarian = test system: OVCAR-3 ovarian

Measured: TGI

COc1ccc(-c2c(-c3ccccc3)c(C)nc3[nH]c(=S)[nH]c(=S)c23)cc1OC
90.1 µM: MALME-3M melanoma
> 100 µM: OVCAR-4 ovarian | SW-620 colon | NCI/ADR-RES ovarian | A549 NSCLC | SK-MEL-5 melanoma | T-47D breast | SNB-19 CNS | U251 CNS | HL-60(TB) leukemia | HOP-92 NSCLC | RXF 393 renal | A498 renal | RPMI-8226 leukemia | BT-549 breast | IGROV1 ovarian | OVCAR-5 ovarian | SF-295 CNS | SK-OV-3 ovarian | UACC-257 melanoma | HCC-2998 colon | SNB-75 CNS | OVCAR-8 ovarian | HS 578T breast | MDA-N | NCI-H23 lung | K-562 leukemia | HCT-15 colon | 786-0 renal | CAKI-1 renal | EKVX NSCLC | TK-10 renal | HT29 colon | M14 melanoma | NCI-H226 lung | MCF7 breast | MDA-MB-231 breast | LOX IMVI melanoma | SF-268 CNS | PC-3 prostate | DU-145 prostate | ACHN renal
83.3 µM: SN12C renal
50.8 µM: SF-539 CNS
98.3 µM: NCI-H460 lung
85.8 µM: NCI-H522 lung
64.9 µM: HCT-116 colon
63.6 µM: MOLT-4 leukemia
72.1 µM: COLO 205 colon
68.4 µM: UO-31 renal
42.7 µM: KM12 colon
40.2 µM: UACC-62 melanoma | OVCAR-3 ovarian
72.5 µM: CCRF-CEM leukemia
48.1 µM: SK-MEL-2 melanoma
89.6 µM: HOP-62 NSCLC
74.1 µM: MDA-MB-435
52.8 µM: SK-MEL-28 melanoma
